The record followed here is ChEMBL document CHEMBL1833797, “Microwave assisted synthesis and antimicrobial evaluation of new fused pyran derivatives bearing 2-morpholinoquinoline nucleus” (2011).

The term MIC denotes the lowest concentration found to suppress growth.

One test relates to Vibrio cholerae. The test can be described thus: Antimicrobial activity against Vibrio cholerae MTCC 3906 for 24 hrs by microdilution method. The following applies: MTCC 3906, 24 h. It counts as functional. Background: Broth dilution looks for growth in wells or tubes with falling amounts of substance.
For the next test, the system named is Bacillus subtilis. Nature of the test: Antimicrobial activity against Bacillus subtilis MTCC 441 for 24 hrs by microdilution method. In kind it is functional. The following applies: MTCC 441, 24 h.
Another test concerns Clostridium tetani. The test can be described thus: Antimicrobial activity against Clostridium tetani MTCC 449 for 24 hrs by microdilution method. It counts as functional. Particulars: MTCC 449, 24 h.
The test system of another test is Salmonella typhi. The test can be described thus: Antimicrobial activity against Salmonella typhi MTCC 98 for 24 hrs by microdilution method. It counts as functional, Salmonella enterica subsp. enterica serovar Typhi. Particulars: Salmonella enterica, MTCC 98, 24 h.
Another test has as its system Streptococcus pneumoniae. Nature of the test: Antimicrobial activity against Streptococcus pneumoniae MTCC 1936 for 24 hrs by microdilution method. It counts as functional. Particulars: MTCC 1936, 24 h.
In a further test the test system is Aspergillus fumigatus. The test can be described thus: Antifungal activity against Aspergillus fumigatus MTCC 3008 for 48 hrs by microdilution method. The following applies: MTCC 3008, 48 h. In kind it is functional.
The subject of a further test is Escherichia coli. The test can be described thus: Antimicrobial activity against Escherichia coli MTCC 443 for 24 hrs by microdilution method. In kind it is functional. The following applies: MTCC 443, 24 h.
A further test deals with Candida albicans. The test can be described thus: Antifungal activity against Candida albicans MTCC 227 for 48 hrs by microdilution method. In kind it is functional. Particulars: MTCC 227, 48 h.

≈ marks a conversion by molar mass, not a printed value. Where only a bound is given, the exact number is not on record here.

Consider `N#CC1=C(N)Oc2cc(O)ccc2C1c1cc2ccccc2nc1N1CCOCC1` (stereo not drawn), for which the MIC in the test on Vibrio cholerae is 250 µg/mL (≈ 624 µM); against Bacillus subtilis, 250 µg/mL (≈ 624 µM); against Clostridium tetani, 250 µg/mL (≈ 624 µM); against Salmonella typhi, 200 µg/mL (≈ 499 µM); in the test with Streptococcus pneumoniae, 250 µg/mL (≈ 624 µM); with Aspergillus fumigatus it was greater than 1000 µg/mL. In addition, the MIC was 100 µg/mL (≈ 250 µM) against Escherichia coli and 1000 µg/mL (≈ 2500 µM) with Candida albicans.
For the molecule `CCn1cc(C(=O)O)c(=O)c2cc(F)c(N3CCNCC3)cc21` [NORFLOXACIN], the minimal inhibitory concentration (MIC) turned out to be 10 µg/mL (≈ 31.3 µM) with Vibrio cholerae; 100 µg/mL (≈ 313 µM) against Bacillus subtilis; 50 µg/mL (≈ 157 µM) in the test on Clostridium tetani; 10 µg/mL (≈ 31.3 µM) against Salmonella typhi; 10 µg/mL (≈ 31.3 µM) with Streptococcus pneumoniae; 10 µg/mL (≈ 31.3 µM) in the test on Escherichia coli.
Regarding `Cc1ccc2nc(N3CCOCC3)c(C3C(C#N)=C(N)OC4=C3C(=O)CCC4)cc2c1` (stereo not drawn), the MIC is 200 µg/mL (≈ 480 µM) against Vibrio cholerae; 200 µg/mL (≈ 480 µM) against Bacillus subtilis; 200 µg/mL (≈ 480 µM) against Clostridium tetani; 200 µg/mL (≈ 480 µM) in the test on Salmonella typhi; 100 µg/mL (≈ 240 µM) with Streptococcus pneumoniae; greater than 1000 µg/mL in the test on Aspergillus fumigatus. For the same molecule, the MIC in the test with Escherichia coli came out at 200 µg/mL (≈ 480 µM); in the test on Candida albicans, 1000 µg/mL (≈ 2400 µM).
For `COc1ccc2nc(N3CCOCC3)c(C3C(C#N)=C(N)Oc4c3c(=O)oc3ccccc43)cc2c1` (stereo not drawn), the MIC was 500 µg/mL (≈ 1040 µM) against Vibrio cholerae; 200 µg/mL (≈ 415 µM) in the test on Bacillus subtilis; 500 µg/mL (≈ 1040 µM) against Clostridium tetani; 500 µg/mL (≈ 1040 µM) with Salmonella typhi; 200 µg/mL (≈ 415 µM) in the test with Streptococcus pneumoniae; 1000 µg/mL (≈ 2070 µM) in the test with Aspergillus fumigatus. Also, the MIC came to 500 µg/mL (≈ 1040 µM) in the test with Escherichia coli and 200 µg/mL (≈ 415 µM) against Candida albicans.
With `Cc1ccc2nc(N3CCOCC3)c(C3C(C#N)=C(N)Oc4c3ccc3ccccc43)cc2c1` (stereo not drawn), the MIC was determined as 12.5 µg/mL (≈ 27.9 µM) with Vibrio cholerae; 500 µg/mL (≈ 1110 µM) in the test with Bacillus subtilis; 500 µg/mL (≈ 1110 µM) in the test with Clostridium tetani; 250 µg/mL (≈ 557 µM) in the test with Salmonella typhi; 500 µg/mL (≈ 1110 µM) with Streptococcus pneumoniae; 500 µg/mL (≈ 1110 µM) in the test with Aspergillus fumigatus. Besides, the MIC against Escherichia coli is 200 µg/mL (≈ 446 µM); against Candida albicans it was greater than 1000 µg/mL.
As to `COc1ccc2nc(N3CCOCC3)c(C3C(C#N)=C(N)OC4=C3C(=O)CCC4)cc2c1` (stereo not drawn), the minimum inhibitory concentration (MIC) was determined as 250 µg/mL (≈ 578 µM) in the test with Vibrio cholerae; 250 µg/mL (≈ 578 µM) with Bacillus subtilis; 500 µg/mL (≈ 1160 µM) in the test on Clostridium tetani; 200 µg/mL (≈ 462 µM) in the test on Salmonella typhi; 250 µg/mL (≈ 578 µM) in the test with Streptococcus pneumoniae; 1000 µg/mL (≈ 2310 µM) in the test with Aspergillus fumigatus. Further, the MIC turned out to be 200 µg/mL (≈ 462 µM) against Escherichia coli and 500 µg/mL (≈ 1160 µM) in the test on Candida albicans.
Turning to `N#CC1=C(N)Oc2c(c(=O)oc3ccccc23)C1c1cc2ccccc2nc1N1CCOCC1` (stereo not drawn), the MIC in the test with Vibrio cholerae worked out at 250 µg/mL (≈ 553 µM); with Bacillus subtilis, 250 µg/mL (≈ 553 µM); in the test with Clostridium tetani it was 200 µg/mL (≈ 442 µM); against Salmonella typhi, 100 µg/mL (≈ 221 µM); with Streptococcus pneumoniae it was 250 µg/mL (≈ 553 µM); in the test on Aspergillus fumigatus it was 500 µg/mL (≈ 1110 µM). In addition, the MIC was found to be 200 µg/mL (≈ 442 µM) against Escherichia coli and 500 µg/mL (≈ 1110 µM) against Candida albicans.
For `COc1ccc2nc(N3CCOCC3)c(C3C(C#N)=C(N)Oc4cc(O)ccc43)cc2c1` (stereo not drawn), the minimum inhibitory concentration (MIC) in the test on Vibrio cholerae came out at 250 µg/mL (≈ 581 µM); with Bacillus subtilis, 200 µg/mL (≈ 465 µM); in the test on Clostridium tetani, 250 µg/mL (≈ 581 µM); in the test with Salmonella typhi, 250 µg/mL (≈ 581 µM); in the test on Streptococcus pneumoniae, 12.5 µg/mL (≈ 29 µM); against Aspergillus fumigatus, 500 µg/mL (≈ 1160 µM). The MIC against Escherichia coli was 250 µg/mL (≈ 581 µM); with Candida albicans it was 500 µg/mL (≈ 1160 µM).
With `Cc1ccc2nc(N3CCOCC3)c(C3C(C#N)=C(N)OC4=C3C(=O)c3ccccc3C4=O)cc2c1` (stereo not drawn), the MIC in the test on Vibrio cholerae was 250 µg/mL (≈ 522 µM); against Bacillus subtilis it was 200 µg/mL (≈ 418 µM); in the test on Clostridium tetani, 250 µg/mL (≈ 522 µM); in the test on Salmonella typhi, 100 µg/mL (≈ 209 µM); in the test on Streptococcus pneumoniae, 100 µg/mL (≈ 209 µM); against Aspergillus fumigatus it was greater than 1000 µg/mL. Besides, the results for the MIC in the test with Escherichia coli and against Candida albicans were 250 µg/mL (≈ 522 µM) and greater than 1000 µg/mL, respectively.
Turning to `Cc1cc2c(c(=O)o1)C(c1cc3ccccc3nc1N1CCOCC1)C(C#N)=C(N)O2` (stereo not drawn), the MIC against Vibrio cholerae is 100 µg/mL (≈ 240 µM); against Bacillus subtilis, 200 µg/mL (≈ 480 µM); in the test with Clostridium tetani, 100 µg/mL (≈ 240 µM); in the test on Salmonella typhi it was 100 µg/mL (≈ 240 µM); in the test with Streptococcus pneumoniae, 200 µg/mL (≈ 480 µM); in the test on Aspergillus fumigatus, 200 µg/mL (≈ 480 µM). Also, the MIC with Escherichia coli worked out at 62.5 µg/mL (≈ 150 µM); against Candida albicans it was 1000 µg/mL (≈ 2400 µM).
Turning to `Cc1ccc2nc(N3CCOCC3)c(C3C(C#N)=C(N)OC4=C3C(=O)CC(C)(C)C4)cc2c1` (stereo not drawn), the MIC came out at 250 µg/mL (≈ 562 µM) against Vibrio cholerae; 200 µg/mL (≈ 450 µM) against Bacillus subtilis; 500 µg/mL (≈ 1120 µM) with Clostridium tetani; 250 µg/mL (≈ 562 µM) in the test with Salmonella typhi; 25 µg/mL (≈ 56.2 µM) against Streptococcus pneumoniae; 1000 µg/mL (≈ 2250 µM) in the test on Aspergillus fumigatus. The values for the MIC with Escherichia coli and in the test with Candida albicans were 200 µg/mL (≈ 450 µM) and 250 µg/mL (≈ 562 µM), respectively.
For the molecule `Cc1ccc2nc(N3CCOCC3)c(C3C(C#N)=C(N)Oc4cc(C)oc(=O)c43)cc2c1` (stereo not drawn), the MIC with Vibrio cholerae was 200 µg/mL (≈ 465 µM); with Bacillus subtilis, 500 µg/mL (≈ 1160 µM); with Clostridium tetani it was 200 µg/mL (≈ 465 µM); in the test with Salmonella typhi it was 200 µg/mL (≈ 465 µM); against Streptococcus pneumoniae, 500 µg/mL (≈ 1160 µM); against Aspergillus fumigatus, 200 µg/mL (≈ 465 µM). In addition, the MIC against Escherichia coli was 100 µg/mL (≈ 232 µM); in the test with Candida albicans, 1000 µg/mL (≈ 2320 µM).
Turning to `COc1ccc2nc(N3CCOCC3)c(C3C(C#N)=C(N)OC4=C3C(=O)c3ccccc3C4=O)cc2c1` (stereo not drawn), the minimal inhibitory concentration (MIC) amounted to 250 µg/mL (≈ 506 µM) in the test with Vibrio cholerae; 200 µg/mL (≈ 404 µM) in the test on Bacillus subtilis; 100 µg/mL (≈ 202 µM) with Clostridium tetani; 200 µg/mL (≈ 404 µM) in the test on Salmonella typhi; 200 µg/mL (≈ 404 µM) with Streptococcus pneumoniae; 1000 µg/mL (≈ 2020 µM) in the test with Aspergillus fumigatus. Besides, the figures for the minimal inhibitory concentration (MIC) in the test with Escherichia coli and in the test with Candida albicans were 100 µg/mL (≈ 202 µM) and greater than 1000 µg/mL, respectively.
For the molecule `CC1(C)S[C@@H]2[C@H](NC(=O)[C@H](N)c3ccccc3)C(=O)N2[C@H]1C(=O)O` [AMPICILLIN], the MIC in the test on Vibrio cholerae worked out at 100 µg/mL (≈ 286 µM); in the test with Bacillus subtilis, 250 µg/mL (≈ 715 µM); against Clostridium tetani it was 250 µg/mL (≈ 715 µM); in the test on Salmonella typhi it was 100 µg/mL (≈ 286 µM); against Streptococcus pneumoniae, 100 µg/mL (≈ 286 µM); against Escherichia coli, 100 µg/mL (≈ 286 µM).
